{"source": "patent US5545648A", "about": "(Canadian Spinal Research Organization, priority 1992, dated 1996)", "key": {"[1]": {"test": "Plasma levels of 4-AP after intravenous infusion (column liquid chromatography)", "assay_type": "in vivo, human", "description": "The drug was obtained in purified powder form from the Regis Chemical Company (Morton Grove, Ill.) and prepared as an injectable solution, using a 0.9% saline vehicle (Uges and Huizinga, 1981), by the pharmacy of St. Joseph's Hospital. The pharmacy was also responsible for testing pyrogenicity, randomizing the order in which drug and vehicle were administered to different patients, and for providing an escalating scale of dosage during the course of the study. The 4-AP for the first two patients was prepared at a concentration of 3 mg/ml, and the concentration was increased to 4 and 5 mg/ml for succeeding subjects (see Table 1). The drug was further diluted by a factor of 50 times in dextrose saline before delivery, and was administered in the form of a continuous intravenous infusion at a rate of 150 ml/hr controlled by a peristaltic infusion pump. Therefore the delivery rate of the drug increased from 9 mg/hr in the first two patients to 15 mg/hr in the last four. Total intended dosage ranged from 18 to 30 mg. The vehicle control was indistinguishable from the drug solution and was delivered in an identical manner.\n(§1) The schedule of each trial was the same. The patient was admitted to the hospital on the preceding day and in the early morning was assessed by neurological examination and electro-diagnostic evaluation. Administration of the drug or placebo, through an in dwelling venous catheter, was then begun and continued for approximately 2 hours, arranged in 20 minute sequences based on delivery of 1 ml aliquots of the 4-AP solution. The patient was monitored electroencephalographically at frequent intervals throughout the procedure. Samples of blood and urine were obtained from an additional intravenous catheter and from the urinary catheter respectively. Blood was obtained at intervals up to 5 hours from the beginning of drug delivery and urine obtained pre-infusion and at 1 and 2 hours after the beginning of infusion. The patients were re-evaluated by complete neurological examination, by the same examiner, at the end of the period of drug delivery. They were then re-examined with the electrodiagnostic tests. A more limited neurological examination was sometimes performed during drug delivery in an attempt to identify any early changes, without producing significant testing fatigue. The electrodiagnostic tests were repeated at 2 hours after the cessation of drug delivery. Patients showing apparent effects of the treatment remained in the hospital overnight and were examined on the following day. Subsequent contact with the patients was by telephone interview or as a result of their correspondence regarding longer term changes associated with their treatment.\nTwo of the patients who reported more prolonged effects of the drug were returned to the hospital after 4 months for a second, unblinded trial, which included neurological examinations daily for 3-4 days. Plasma samples were also obtained daily from these two patients, for measurement of 4-AP.\nMeasurement of 4-AP in plasma and urine\nSamples of blood were collected from an in dwelling venous catheter in the arm opposite that into which the drug was delivered. Ten or eleven such samples were obtained at intervals up to 5 hours after the initiation of drug delivery (see FIG. 1). Urine samples were withdrawn from the patients' urinary catheter bags at 1 and 2 hours after the initiation of drug infusion.\nPlasma and urine samples were stored at -80° C. until 4-AP levels were analyzed by means of column liquid chromatography, according to a technique described in detail elsewhere (Kostka et al, 1992). Briefly, both plasma and urine samples were subjected to benzoylation by the Schotten-Baumann reaction to convert 4-AP to N-benzoyl-4-AP (Bz4-AP) prior to liquid-liquid -extraction. Propionyl procainamide (PPA) was chosen as the internal standard. […]"}, "[2]": {"tested_on": "spinal cord injured patients", "test": "Vibration sensation score", "assay_type": "in vivo, human", "description": "as §1\nPatients were evaluated using a modified form of the American Spinal Injury Association (ASIA) Standards for Neurological Classification of Spinal Injury Patients (revised 1990). The modifications were mainly required to simplify the examination so that it could be performed on patients lying on a bed with intravenous catheters, electrodes and urethral catheters restricting the range of motion. Examinations performed after the day of drug delivery were made on an outpatient basis with the subjects partially clothed, and evaluation of dermatomes was sometimes incomplete. Each part of the examination was videotaped for later review and was repeated on the two sides of the body.\nSensory abilities were graded on an analogous 0-4 point scale:\nThe sensory modalities tested were light touch, pinprick, vibration, joint position, and temperature. The dermatomes tested for touch and pinprick were: C5,6,7,8, T1,T7-9,L1,2,3,4,5, and S1, giving a total possible score of 96 for each modality. Vibration sensation was usually tested bilaterally, at the shoulder, elbow, knee and ankle. Temperature sensation was tested, with the subject's eyes closed, by blowing cool air from a distance or breathing warm air in close proximity on the dorsal surface of the hands and feet. Joint position sense was examined with the subject's eyes closed, by imposed flexion and extension movements of the thumb and great toe. The total possible score for the full sensory examination was 256 points.\nThough the examiners assigned half point scores in cases where they felt that subjects fell between score categories, any half point differences between pre- and post-infusion scores have been ignored in this analysis. Also omitted from this tabulation are the scores for vibration sensation, which are shown separately in Table 3. […]"}, "[3]": {"tested_on": "surviving myelinated axons of spinal cord", "details": "single nerve fibers; cited from earlier work"}, "[4]": {"tested_on": "spinal cord injury patients", "details": "cited from earlier work"}, "[5]": {"tested_on": "potassium channels", "details": "cited from earlier work"}, "[6]": {"details": "2 hours after infusion of 4-AP, total of subjects"}, "[7]": {"details": "2 hours after infusion of 4-AP, total possible 32, one line per subject: b182 RB, SC, HT, LJ, EB, b187 GCh, AW, b189 GCu"}}, "note": "“And” between values parts separate entries of the source, which are not always exact repeats. Equal entries are not always repeated. “Also recorded” adds a separate entry of the source.", "data": [{"smiles": "Nc1ccncc1", "note": "[4-AP, 4-aminopyridine]", "values": [{"measurement": "plasma level of 4-AP after end of infusion", "setting": "[1]; 2-3 hours after the end of infusion, all subjects", "value": "significant plasma level"}, {"measurement": "plasma level remaining relative to peak level", "setting": "[1]; by 2 days after the infusion, from rate of decline in two patients", "value": "less than 1%"}, {"measurement": "correlation of peak plasma level with dose administered", "setting": "[1]; dose in mg/kg/hr (FIG. 2)", "value": "correlated significantly"}, {"measurement": "concentration at 48 h", "setting": "[1]; human, plasma, iv, 48 hours / 2 days after second, unblinded administration, subjects, read-out: 4-AP plasma concentration (below limit of detection)", "value": "< 3", "unit": "ng/mL"}, {"measurement": "time of peak level in the circulation", "setting": "[1]; i.v. infusion approximately 2 hours", "value": "slightly before or after the end of the infusion period"}, {"measurement": "peak plasma level achieved for each mg/kg infused", "setting": "[1]; i.v. infusion over approximately 2 hours, least squares regression, per mg/kg", "value": "approximately 0.27 mg/l"}, {"measurement": "plasma level of 4-AP the day after infusion", "setting": "[1]; second administration, two subjects", "value": "detectable levels of the drug in the plasma the day after infusion"}, {"measurement": "correlation of time course of elimination with prolonged neurological effects", "setting": "[1]; two subjects, 3-4 days", "value": "clearly did not correlate"}, {"measurement": "oscillation of measured drug levels", "setting": "[1]; up to 5 hours from start of infusion, most subjects", "value": "some degree of oscillation of the measured drug levels; also recorded: oscillation in the measured drug levels"}, {"measurement": "change in total score for vibration sensation, +ve, TOTAL", "setting": "[2]; [6]", "value": "+1"}, {"measurement": "change in total score for vibration sensation, -ve, TOTAL", "setting": "[2]; [6]", "value": -12}, {"measurement": "change in total score for vibration sensation, +ve", "setting": "[2]; [7]", "value": "0 and +1"}, {"measurement": "change in total score for vibration sensation, -ve", "setting": "[2]; [7]", "value": "0 and -7 and -4 and -2"}, {"measurement": "vibration sensation score (in words)", "setting": "[2]; after 4-AP infusion, three subjects", "value": "scores in three subjects decreased substantially"}, {"measurement": "overcoming of conduction block", "setting": "[3]", "value": "Some of this conduction block can be overcome"}, {"measurement": "serious side effects", "setting": "[4]; human, in vivo", "value": "lack of serious side effects"}, {"measurement": "therapeutic benefit", "setting": "[4]; mostly electrophysiological level", "value": "modest therapeutic benefit"}, {"measurement": "spontaneous activity of injured nerve fibres on potassium channel blockade", "setting": "[5]", "value": "tends to produce or enhance such spontaneous activity and to elicit \"burst\" (multiple action potential) responses"}]}]}
